Each structure is given as a SMILES string. pEC50, pIC50: −log10 of the molar value. Where a name gives a salt, the structure may show the parent alone.

Experiment [1] addresses T1, PKCθ (Homo sapiens, UniProt Q04759).
T1 construct: His6; purchased Millipore; host or cells: baculovirus in Sf21 cells
Nature of the experiment: In vitro enzyme assay (time-resolved fluorescence kinase assay), PKCθ, 100 μM ATP. It is filed as biochemical. The method in brief:
(§1)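 Read-out was time-resolved fluorescence, corrected for a minus-enzyme blank and converted to percent activity relative to enzyme without drug. They were stopped with EDTA.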

The target in experiment [2] is T2, PKCα (Homo sapiens, UniProt P17252).
T2 construct: His6; purchased Millipore; host or cells: baculovirus in Sf21 cells
In words: In vitro enzyme assay (time-resolved fluorescence kinase assay), PKCα, 100 μM ATP. It is filed as biochemical. Conditions: 100 μM ATP; read-out: PKCα enzyme IC50. Summed up: as §1

Experiment [3] relates to CD3/CD28 induced IL-2 in human T-Blasts. Nature of the experiment: T-Blasts CD3/CD28 induced IL-2 assay. It is filed as cell-based. Conditions: read-out: CD3/CD28-stimulated IL2 in T-blasts EC50. The method in brief: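 IL-2 in supernatants read after 24 h 37° C stimulation of human PHA T-blasts (2×10^5/well) with anti-CD3/anti-CD28 at 5 μg/mL final. Duplicate eight-point, 1/3-step compound series added 30 min before stimulus; residual cells checked by MTT for toxicity.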

T1 sequence (Q04759 whole entry): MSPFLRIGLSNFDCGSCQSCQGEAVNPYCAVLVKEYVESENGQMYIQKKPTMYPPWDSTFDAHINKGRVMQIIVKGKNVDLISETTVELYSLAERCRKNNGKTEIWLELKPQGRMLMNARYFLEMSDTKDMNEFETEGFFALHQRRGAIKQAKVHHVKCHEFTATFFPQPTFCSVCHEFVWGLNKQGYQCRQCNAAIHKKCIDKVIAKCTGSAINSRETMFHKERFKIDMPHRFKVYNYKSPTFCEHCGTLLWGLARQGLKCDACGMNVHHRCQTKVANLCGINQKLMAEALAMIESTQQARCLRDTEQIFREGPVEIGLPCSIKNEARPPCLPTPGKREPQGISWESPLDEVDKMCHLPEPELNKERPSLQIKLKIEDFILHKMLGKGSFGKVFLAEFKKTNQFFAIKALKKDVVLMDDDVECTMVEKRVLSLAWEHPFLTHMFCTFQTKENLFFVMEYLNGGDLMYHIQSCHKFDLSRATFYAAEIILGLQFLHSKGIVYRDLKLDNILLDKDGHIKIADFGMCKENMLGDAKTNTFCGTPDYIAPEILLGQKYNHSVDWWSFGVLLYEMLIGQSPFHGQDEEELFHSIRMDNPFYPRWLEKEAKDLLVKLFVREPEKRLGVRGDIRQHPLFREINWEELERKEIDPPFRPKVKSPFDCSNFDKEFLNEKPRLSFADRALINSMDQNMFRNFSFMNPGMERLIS

Broadly, the pIC50 is the negative decadic logarithm of the IC50, by convention in mol/L. On to `C[C@H]1C(=O)NN=C2COc3cc(F)c(NC4CNC4)cc3N21` (single isomer, unassigned) [Example 56-1, trifluoroacetic acid], for which the pIC50 in experiment [1] was 6.00 to 6.60; in experiment [2], 5.00 to 6.00. The pEC50 in experiment [3] is 5.00 to 6.00.
`CC1C(=O)NN=C2COc3cc(-c4cccc(C#N)c4)c(NC4CNC4)cc3N21` (racemic) [Example 39]: the pIC50 in experiment [1] was more than 6.60; in experiment [2], 5.00 to 6.00. For the same compound, the pEC50 in experiment [3] is 6.00 to 6.60.
In the case of `CC1C(=O)NN=C2COc3cc(OCc4ccccc4)c(NC4CNC4)cc3N21` (stereo not drawn) [Example 127, 6-(Azetidin-3-ylamino)-7-benzyloxy-4-methyl-2,10-dihydro-9-oxa-1,2,4a-triaza-phenanthren-3-one trifluoroacetic acid], the pIC50 in experiment [1] is more than 6.60; in experiment [2], 5.00 to 6.00. Besides, in experiment [3], the pEC50 was 6.00 to 6.60.
As for `C[C@@H]1C(=O)NN=C2COc3ccc([C@@H]4CCN[C@H](Cc5ccccc5)C4)cc3N21` (single isomer, unassigned) [Example 109-2, trifluoroacetic acid], the pIC50 was more than 6.60 in experiment [1] and 5.00 to 6.00 in experiment [2]. The pEC50 in experiment [3] was more than 6.60.
Take `C[C@@H]1C(=O)NN=C2COc3cc(-c4ccccc4F)c([C@@H](C)C4(C)CNC4)cc3N21` [Example 146, (R)-7-(2-Fluoro-phenyl)-4-methyl-6-[(R)-1-(3-methyl-azetidin-3-yl)-ethyl]-2,10-dihydro-9-oxa-1,2,4a-triaza-phenanthren-3-one]: the pIC50 in experiment [1] and in experiment [2] was more than 6.60 each time. For the same compound, the pEC50 in experiment [3] is more than 6.60.
As to `CC1C(=O)NN=C2COc3cc(-c4ccc(F)cc4)c(NC4CNC4)cc3N21` (racemic) [Example 50], the pIC50 is more than 6.60 in experiment [1] and 5.00 to 6.00 in experiment [2]. Besides, the pEC50 in experiment [3] was more than 6.60.
As for `C[C@H](O)CN1CC(C)(N(C)c2cc3c(cc2-c2ccccc2F)OCC2=NNC(=O)[C@@H](C)N23)C1` [Example 188], the pIC50 in experiment [1] and in experiment [2] was more than 6.60 each time. Moreover, the pEC50 in experiment [3] was more than 6.60.
For `Cc1ccccc1-c1cc2c(cc1NC1CNC1)N1C(=NNC(=O)[C@H]1C)CO2` [Example 5], the pIC50 is more than 6.60 in experiment [1] and 5.00 to 6.00 in experiment [2]. The pEC50 in experiment [3] was more than 6.60.
Take `CC1C(=O)NN=C2COc3cc(C(F)(F)F)c(CC4CNC4)cc3N21` (stereo not drawn) [Example 99, 6-Azetidin-3-ylmethyl-4-methyl-7-trifluoromethyl-2,10-dihydro-9-oxa-1,2,4a-triaza-phenanthren-3-one trifluoroacetic acid]: the pIC50 is more than 6.60 in experiment [1] and 5.00 to 6.00 in experiment [2]. In experiment [3], the pEC50 is 6.00 to 6.60.
For the compound `C[C@@H]1C(=O)NN=C2COc3cc(-c4ccccc4F)c(N(C)C4(C)CN(CC(C)(C)O)C4)cc3N21` [Example 190], the pIC50 in experiment [1] was more than 6.60; in experiment [2], 6.00 to 6.60. In experiment [3], the pEC50 was more than 6.60.
Regarding `CC(C)c1cc2c(cc1OC1(C)CNC1)N1C(=NNC(=O)[C@H]1C)CO2` (single isomer, unassigned) [Example 121-2, trifluoroacetic acid], the pIC50 was 6.00 to 6.60 in experiment [1] and 5.00 to 6.00 in experiment [2]. For the same compound, the pEC50 in experiment [3] is 5.00 to 6.00.
With `C[C@@H]1C(=O)NN=C2COc3cc4ccn([C@@H]5CCNC5)c4cc3N21` [Example 151-2, (R)-1-Methyl-10-(R)-pyrrolidin-3-yl-3,5-dihydro-10H-6-oxa-3,4,10,11b-tetraaza-cyclopenta[b]phenanthren-2-one hydrochloric acid], the pIC50 is more than 6.60 in experiment [1] and 5.00 to 6.00 in experiment [2]. Further, the pEC50 in experiment [3] was 6.00 to 6.60.
As to `CC1C(=O)NN=C2COc3cc(-c4ccc(C(F)(F)F)cc4)c(NC4CNC4)cc3N21` (racemic) [Example 14], the values for the pIC50 in experiment [1] and in experiment [2] were 6.00 to 6.60 and 5.00 to 6.00, respectively. The pEC50 in experiment [3] was more than 6.60.
As to `CC1C(=O)NN=C2COc3cc(-c4ccccc4)c(N(C)C4(C)CN(C5CCOCC5)C4)cc3N21` (stereo not drawn) [Example 94], the negative logarithm of the IC50 (pIC50) was more than 6.60 in experiment [1] and 6.00 to 6.60 in experiment [2]. The pEC50 in experiment [3] is more than 6.60.
Regarding `C[C@@H]1C(=O)NN=C2COc3cc(-c4ccccc4F)c(N(C)C4(C)CN(C5COC5)C4)cc3N21` [Example 194], the pIC50 is more than 6.60 in experiment [1] and 6.00 to 6.60 in experiment [2]. Besides, the pEC50 in experiment [3] is 6.00 to 6.60.
Turning to `CC1C(=O)NN=C2COc3cc(C(C)C(F)(F)F)c(NC4CNC4)cc3N21` (stereo not drawn) [Example 112, 9-(Azetidin-3-ylamino)-1-methyl-8-(1,1,1-trifluoropropan-2-yl)-3,5-dihydrobenzo[5,6][1,4]oxazino[3,4-c][1,2,4]triazin-2(1H)-one trifluoroacetic acid salt], the pIC50 in experiment [1] and in experiment [2] was 5.00 to 6.00 in each case. The pEC50 in experiment [3] was 5.00 to 6.00.
For the compound `CC1C(=O)NN=C2COc3cc(-c4ccccc4F)c(NC4CNC4)cc3N21` (racemic) [Example 42], the pIC50 is more than 6.60 in experiment [1] and 5.00 to 6.00 in experiment [2]. In addition, the pEC50 in experiment [3] was more than 6.60.
On to `C[C@@H]1C(=O)NN=C2COc3cc(-c4ccc(F)cc4)c(NC4CNC4)cc3N21` [Example 9], for which the pIC50 in experiment [1] was more than 6.60; in experiment [2], 5.00 to 6.00. The pEC50 in experiment [3] was more than 6.60.
For the compound `Cc1cc(-c2cc3c(cc2NC2CNC2)N2C(=NNC(=O)C2C)CO3)ccc1F` (racemic) [Example 32], the pIC50 in experiment [1] was more than 6.60; in experiment [2] it was 5.00 to 6.00. For the same compound, the pEC50 in experiment [3] is 6.00 to 6.60.
Turning to `C[C@@H]1C(=O)NN=C2COc3cc(-c4c(Cl)cccc4N4CCNCC4)ccc3N21` [Example 131], the pIC50 was more than 6.60 in experiment [1] and 5.00 to 6.00 in experiment [2]. For the same compound, the pEC50 in experiment [3] is 6.00 to 6.60.
The like results for `C[C@@H]1CN(C)CCN1c1cc2c(cc1-c1ccccc1F)OCC1=NNC(=O)[C@@H](C)N12` [Example 230] were, in that order, more than 6.60, 6.00 to 6.60 and more than 6.60.
As to `C[C@@H]1C(=O)NN=C2COc3cc(-c4ccccc4F)c(N4[C@@H]5CC[C@H]4CNC5)cc3N21` [Example 228], the pIC50 in experiment [1] was more than 6.60; in experiment [2] it was 6.00 to 6.60. Moreover, the pEC50 in experiment [3] is 6.00 to 6.60.
Turning to `C[C@@H]1C(=O)NN=C2COc3cc(-c4ccccc4F)c(N(C)C4(C)CN(C(=O)C(F)(F)F)C4)cc3N21` [Example 186], the figures for the pIC50 in experiment [1] and in experiment [2] were 6.00 to 6.60 and 5.00 to 6.00, respectively. Also, the pEC50 in experiment [3] is 6.00 to 6.60.
On to `C[C@@H]1C(=O)NN=C2COc3cc(-c4ccccc4F)c([C@H]4CCNC4)cc3N21` [Example 214], for which the pIC50 is more than 6.60 in experiment [1] and 5.00 to 6.00 in experiment [2]. In addition, the pEC50 in experiment [3] was more than 6.60.
Take `CC1C(=O)NN=C2COc3cc(-c4cccc5ccccc45)c(NC4CNC4)cc3N21` (racemic) [Example 52]: the values for the pIC50 in experiment [1] and in experiment [2] were more than 6.60 and 5.00 to 6.00, respectively. Also, in experiment [3], the pEC50 was 6.00 to 6.60.
Regarding `CC(C)N1CC(C)(N(C)c2cc3c(cc2-c2ccccc2)OCC2=NNC(=O)C(C)N23)C1` (stereo not drawn) [Example 91], the figures for the negative-log IC50 (pIC50) in experiment [1] and in experiment [2] were more than 6.60 and 6.00 to 6.60, respectively. In experiment [3], the pEC50 is more than 6.60.
Consider `Cc1cccc(-c2cc3c(cc2NC2CNC2)N2C(=NNC(=O)C2C)CO3)c1` (racemic) [Example 22], for which the pIC50 in experiment [1] was more than 6.60; in experiment [2], 5.00 to 6.00. The pEC50 in experiment [3] was more than 6.60.
On to `C[C@@H]1C(=O)NN=C2COc3cc(-c4ccccc4F)c(N4CCNC[C@@H]4C)cc3N21` [Example 224], for which the pIC50 is more than 6.60 in experiment [1] and 6.00 to 6.60 in experiment [2]. The pEC50 in experiment [3] was more than 6.60.
Consider `CC1C(=O)NN=C2COc3cc(-c4cccc(C(F)(F)F)c4)c(NC4CNC4)cc3N21` (racemic) [Example 24], for which the results for the pIC50 in experiment [1] and in experiment [2] were 6.00 to 6.60 and 5.00 to 6.00, respectively. Also, the pEC50 in experiment [3] is more than 6.60.
The like results for `C[C@@H]1C(=O)NN=C2COc3cc(-c4ccc(F)cc4F)c([C@@H]4CCN(C)C[C@@H]4C)cc3N21` [Example 238] were, in that order, more than 6.60, more than 6.60 and more than 6.60.
As to `C[C@@H]1C(=O)NN=C2COc3cc(-c4ccccc4F)c(N(C)C4(C)CN(C(=O)CO)C4)cc3N21` [Example 184], the pIC50 is more than 6.60 in experiment [1] and 5.00 to 6.00 in experiment [2]. The pEC50 in experiment [3] is 6.00 to 6.60.
As to `C[C@@H]1C(=O)NN=C2COc3ccc([C@H](C)C4CNC4)cc3N21` [Example 111], the pIC50 in experiment [1] is more than 6.60; in experiment [2] it was 5.00 to 6.00. Besides, in experiment [3], the pEC50 was 6.00 to 6.60.
The like results for `C[C@@H]1C(=O)NN=C2COc3cc(-c4c(F)cccc4F)c(C4CCNCC4)cc3N21` [Example 213] were, in that order, more than 6.60, 5.00 to 6.00 and more than 6.60.
For the compound `C[C@H](c1ccc2c(c1)N1C(=NNC(=O)[C@H]1C)CO2)C1CNC1` [Example 110], the pIC50 was 6.00 to 6.60 in experiment [1] and 5.00 to 6.00 in experiment [2]. Also, the pEC50 in experiment [3] is 6.00 to 6.60.
In the case of `Cc1cccc(-c2cc3c(cc2N(C)C2(C)CN(C)C2)N2C(=NNC(=O)C2C)CO3)c1` (stereo not drawn) [Example 172], the pIC50 was more than 6.60 in experiment [1] and 6.00 to 6.60 in experiment [2]. Also, the pEC50 in experiment [3] is more than 6.60.
For the compound `C[C@@H]1C(=O)NN=C2COc3cc(-c4ccccc4F)c([C@H]4CCCNC4)cc3N21` [Example 216], the pIC50 in experiment [1] was more than 6.60; in experiment [2], 5.00 to 6.00. Further, the pEC50 in experiment [3] is 6.00 to 6.60.
For the compound `C[C@@H]1C(=O)NN=C2COc3cc(-c4ccccc4CO)c([C@@H](C)C4(C)CN(C)C4)cc3N21` [Example 135], the pIC50 in experiment [1] is more than 6.60; in experiment [2] it was 6.00 to 6.60. Also, the pEC50 in experiment [3] is more than 6.60.
